Measurements taken from paper PMC5399447, “Neuroprotective pentapeptide CN-105 is associated with reduced sterile inflammation and improved functional outcomes in a traumatic brain injury murine model” (Scientific Reports, 2017).

Tested on: 84 genes related to inflammatory and autoimmune processes
Assay: Mouse Inflammatory Response and Autoimmunity PCR Array, whole brain
Type: in vivo
Parameters: key to Il9 ΔCt value, S-CN-105 / Il8ra ΔCt value, S-CN-105 / Il1rn ΔCt value, S-CN-105 / Il1f10 ΔCt value, S-CN-105 / Crp ΔCt value, S-CN-105: *: Indicate mRNA expression was below the level of detection
Details: brain 24 h
Protocol: Frozen, pulverized whole brain tissue was processed for RNA extraction from a separate cohort of treated and untreated injured animals on days 1 post-injury(CN-105, n = 4; vehicle, n = 3; Control(sham-operated), n = 3). Total RNA was extracted from frozen, pulverized whole brain tissue using RNeasy Lipid Tissue Mini Kit(Qiagen, Valencia, CA). RNA quantity and quality was assessed with the NanoDrop ND-1000 spectrophotometer(NanoDrop Technologies, Inc., Wilmington, DE) and by agarose gel electrophoresis. Only samples with a 260/280 ratio between 1.9–2.1, and a 260/230 ratio greater than 2.0, were further processed. First strand complementary DNA(cDNA) was generated from 2 μg total RNA using the RT[2] First strand kit(SABiosciences, Frederick, MD.)
Gene expression was measured using the Mouse Inflammatory Response and Autoimmunity PCR Array(SABiosciences, Frederick, MD), which profiles the expression of 84 genes related to inflammatory and autoimmune processes. RT-PCR was performed according to manufacturer’s instructions Quality of the cDNA and PCR efficiency was verified by housekeeping genes and RT-PCR controls included in the PCR Array.
Raw RT-PCR data were analyzed using the Web-Based PCR Array Data Analysis software(SABiosciences). ΔCt values and ΔΔCt - based fold-change were calculated from raw threshold cycle data, using beta-actin and glyceraldehyde 3-phosphate dehydrogenase(GAPDH) as internal standards for normalization. Fold changes were then normalized against sham-operated controls.

Ac-VSRRR-amide [CN-105]
Fos fold change TBI-CN-105/S-v (TBI CN-105 vs sham vehicle): 1.1
Hdac4 fold change TBI-CN-105/S-v (TBI CN-105 vs sham vehicle): 13.9
Ifng fold change TBI-CN-105/S-v (TBI CN-105 vs sham vehicle): 59.7
Il1a fold change TBI-CN-105/S-v (TBI CN-105 vs sham vehicle): 37.7
Il1b fold change TBI-CN-105/S-v (TBI CN-105 vs sham vehicle): 416.6
Il1f10 fold change TBI-CN-105/S-v (TBI CN-105 vs sham vehicle): 352.3
Il1r1 fold change TBI-CN-105/S-v (TBI CN-105 vs sham vehicle): −6.2
Il1rap fold change TBI-CN-105/S-v (TBI CN-105 vs sham vehicle): −37.5
Il1rn fold change TBI-CN-105/S-v (TBI CN-105 vs sham vehicle): 74.2
Il6 fold change TBI-CN-105/S-v (TBI CN-105 vs sham vehicle): 13.2
Il6ra fold change TBI-CN-105/S-v (TBI CN-105 vs sham vehicle): 47.9
Il7 fold change TBI-CN-105/S-v (TBI CN-105 vs sham vehicle): 5569.8
Il8ra fold change TBI-CN-105/S-v (TBI CN-105 vs sham vehicle): 196.8
Il8rb fold change TBI-CN-105/S-v (TBI CN-105 vs sham vehicle): 658.4
Il9 fold change TBI-CN-105/S-v (TBI CN-105 vs sham vehicle): 1155.5
Il10 fold change TBI-CN-105/S-v (TBI CN-105 vs sham vehicle): 82.2
Il10rb fold change TBI-CN-105/S-v (TBI CN-105 vs sham vehicle): 1.5
Il18 fold change TBI-CN-105/S-v (TBI CN-105 vs sham vehicle): −9.5
Il18rap fold change TBI-CN-105/S-v (TBI CN-105 vs sham vehicle): 58.6
Il22 fold change TBI-CN-105/S-v (TBI CN-105 vs sham vehicle): 77.8
Il22ra2 fold change TBI-CN-105/S-v (TBI CN-105 vs sham vehicle): 3448.3
Il23a fold change TBI-CN-105/S-v (TBI CN-105 vs sham vehicle): 838.4
Il23r fold change TBI-CN-105/S-v (TBI CN-105 vs sham vehicle): 7.2
Itgb2 fold change TBI-CN-105/S-v (TBI CN-105 vs sham vehicle): 9.6
Lta fold change TBI-CN-105/S-v (TBI CN-105 vs sham vehicle): 917.0
Ltb fold change TBI-CN-105/S-v (TBI CN-105 vs sham vehicle): 75.7
Ly96 fold change TBI-CN-105/S-v (TBI CN-105 vs sham vehicle): 19.9
Myd88 fold change TBI-CN-105/S-v (TBI CN-105 vs sham vehicle): 8.5
Nfatc3 fold change TBI-CN-105/S-v (TBI CN-105 vs sham vehicle): 364.7
Nfkb1 fold change TBI-CN-105/S-v (TBI CN-105 vs sham vehicle): −3.1
Nos2 fold change TBI-CN-105/S-v (TBI CN-105 vs sham vehicle): 1779.4
Nr3c1 fold change TBI-CN-105/S-v (TBI CN-105 vs sham vehicle): −17.8
Ripk2 fold change TBI-CN-105/S-v (TBI CN-105 vs sham vehicle): 30.1
Tirap fold change TBI-CN-105/S-v (TBI CN-105 vs sham vehicle): 14.0
Tlr1 fold change TBI-CN-105/S-v (TBI CN-105 vs sham vehicle): 15.4
Tlr2 fold change TBI-CN-105/S-v (TBI CN-105 vs sham vehicle): 10.0
Tlr3 fold change TBI-CN-105/S-v (TBI CN-105 vs sham vehicle): 3.9
Tlr4 fold change TBI-CN-105/S-v (TBI CN-105 vs sham vehicle): 6.5
Tlr5 fold change TBI-CN-105/S-v (TBI CN-105 vs sham vehicle): 2.5
Tlr6 fold change TBI-CN-105/S-v (TBI CN-105 vs sham vehicle): 14.9
Tlr7 fold change TBI-CN-105/S-v (TBI CN-105 vs sham vehicle): 546.2
Tnf fold change TBI-CN-105/S-v (TBI CN-105 vs sham vehicle): 1367.7
Tnfsf14 fold change TBI-CN-105/S-v (TBI CN-105 vs sham vehicle): 365.9
Tollip fold change TBI-CN-105/S-v (TBI CN-105 vs sham vehicle): −3.2
Bcl6 ΔCt value, S-CN-105 (sham + CN-105 0.05 mg/kg iv): 6.6E − 02
C3ar1 ΔCt value, S-CN-105 (sham + CN-105 0.05 mg/kg iv): 4.1E − 03
C3 ΔCt value, S-CN-105 (sham + CN-105 0.05 mg/kg iv): 7.0E − 04
C4b ΔCt value, S-CN-105 (sham + CN-105 0.05 mg/kg iv): 7.0E − 03
Ccl1 ΔCt value, S-CN-105 (sham + CN-105 0.05 mg/kg iv): 2.3E − 05
Ccl2 ΔCt value, S-CN-105 (sham + CN-105 0.05 mg/kg iv): 8.3E − 04
Ccl3 ΔCt value, S-CN-105 (sham + CN-105 0.05 mg/kg iv): 8.0E − 04
Ccl4 ΔCt value, S-CN-105 (sham + CN-105 0.05 mg/kg iv): 3.8E − 04
Ccl5 ΔCt value, S-CN-105 (sham + CN-105 0.05 mg/kg iv): 1.1E − 03
Ccl7 ΔCt value, S-CN-105 (sham + CN-105 0.05 mg/kg iv): 1.6E − 03
Ccl8 ΔCt value, S-CN-105 (sham + CN-105 0.05 mg/kg iv): 2.1E − 03
Ccl11 ΔCt value, S-CN-105 (sham + CN-105 0.05 mg/kg iv): 2.5E − 04
Ccl12 ΔCt value, S-CN-105 (sham + CN-105 0.05 mg/kg iv): 6.5E − 03
Ccl17 ΔCt value, S-CN-105 (sham + CN-105 0.05 mg/kg iv): 4.2E − 03
Ccl19 ΔCt value, S-CN-105 (sham + CN-105 0.05 mg/kg iv): 2.9E − 02
Ccl20 ΔCt value, S-CN-105 (sham + CN-105 0.05 mg/kg iv): 1.1E − 04
Ccl22 ΔCt value, S-CN-105 (sham + CN-105 0.05 mg/kg iv): 3.8E − 04
Ccl24 ΔCt value, S-CN-105 (sham + CN-105 0.05 mg/kg iv): 9.7E − 05
Ccl25 ΔCt value, S-CN-105 (sham + CN-105 0.05 mg/kg iv): 1.4E − 02
Ccr1 ΔCt value, S-CN-105 (sham + CN-105 0.05 mg/kg iv): 7.1E − 04
Ccr2 ΔCt value, S-CN-105 (sham + CN-105 0.05 mg/kg iv): 5.5E − 04
Ccr3 ΔCt value, S-CN-105 (sham + CN-105 0.05 mg/kg iv): 2.1E − 03
Ccr4 ΔCt value, S-CN-105 (sham + CN-105 0.05 mg/kg iv): 6.0E − 06
Ccr7 ΔCt value, S-CN-105 (sham + CN-105 0.05 mg/kg iv): 2.1E − 04
Cd40lg ΔCt value, S-CN-105 (sham + CN-105 0.05 mg/kg iv): 6.9E − 05
Cd40 ΔCt value, S-CN-105 (sham + CN-105 0.05 mg/kg iv): 8.3E − 04
Cebpb ΔCt value, S-CN-105 (sham + CN-105 0.05 mg/kg iv): 1.1E − 01
Crp ΔCt value, S-CN-105 (sham + CN-105 0.05 mg/kg iv): *
Csf1 ΔCt value, S-CN-105 (sham + CN-105 0.05 mg/kg iv): 1.9E − 02
Cxcl1 ΔCt value, S-CN-105 (sham + CN-105 0.05 mg/kg iv): 1.6E − 04
Cxcl2 ΔCt value, S-CN-105 (sham + CN-105 0.05 mg/kg iv): 2.8E − 04
Cxcl3 ΔCt value, S-CN-105 (sham + CN-105 0.05 mg/kg iv): 2.3E − 05
Cxcl5 ΔCt value, S-CN-105 (sham + CN-105 0.05 mg/kg iv): 2.5E − 03
Cxcl9 ΔCt value, S-CN-105 (sham + CN-105 0.05 mg/kg iv): 1.0E − 04
Cxcl10 ΔCt value, S-CN-105 (sham + CN-105 0.05 mg/kg iv): 1.9E − 03
Cxcl11 ΔCt value, S-CN-105 (sham + CN-105 0.05 mg/kg iv): 9.0E − 05
Cxcr4 ΔCt value, S-CN-105 (sham + CN-105 0.05 mg/kg iv): 6.6E − 03
Fasl ΔCt value, S-CN-105 (sham + CN-105 0.05 mg/kg iv): 1.9E − 04
Flt3l ΔCt value, S-CN-105 (sham + CN-105 0.05 mg/kg iv): 3.0E − 03
Fos ΔCt value, S-CN-105 (sham + CN-105 0.05 mg/kg iv): 2.3E − 01
Hdac4 ΔCt value, S-CN-105 (sham + CN-105 0.05 mg/kg iv): 9.1E − 02
Ifng ΔCt value, S-CN-105 (sham + CN-105 0.05 mg/kg iv): 5.8E − 05
Il1a ΔCt value, S-CN-105 (sham + CN-105 0.05 mg/kg iv): 1.9E − 03
Il1b ΔCt value, S-CN-105 (sham + CN-105 0.05 mg/kg iv): 2.0E − 03
Il1f10 ΔCt value, S-CN-105 (sham + CN-105 0.05 mg/kg iv): *
Il1r1 ΔCt value, S-CN-105 (sham + CN-105 0.05 mg/kg iv): 1.2E − 02
Il1rap ΔCt value, S-CN-105 (sham + CN-105 0.05 mg/kg iv): 4.4E − 02
Il1rn ΔCt value, S-CN-105 (sham + CN-105 0.05 mg/kg iv): *
Il6ra ΔCt value, S-CN-105 (sham + CN-105 0.05 mg/kg iv): 4.9E − 03
Il6 ΔCt value, S-CN-105 (sham + CN-105 0.05 mg/kg iv): 1.1E − 04
Il7 ΔCt value, S-CN-105 (sham + CN-105 0.05 mg/kg iv): 3.2E − 04
Il8ra ΔCt value, S-CN-105 (sham + CN-105 0.05 mg/kg iv): *
Il8rb ΔCt value, S-CN-105 (sham + CN-105 0.05 mg/kg iv): 6.1E − 05
Il9 ΔCt value, S-CN-105 (sham + CN-105 0.05 mg/kg iv): *
Il10rb ΔCt value, S-CN-105 (sham + CN-105 0.05 mg/kg iv): 3.0E − 02
Il10 ΔCt value, S-CN-105 (sham + CN-105 0.05 mg/kg iv): 1.1E − 04
Il18rap ΔCt value, S-CN-105 (sham + CN-105 0.05 mg/kg iv): 4.5E − 05
Il18 ΔCt value, S-CN-105 (sham + CN-105 0.05 mg/kg iv): 1.8E − 01
